Measurements from patent US12077503B2, “Substituted cyclic amides and their use as herbicides” (FMC CORPORATION, priority 2015, dated 2024).

Legend:
Format in all cases: in vivo
[1] = tested on: pigweed (Amaranthus retroflexus); assay: Test A preemergence; conditions: Amaranthus retroflexus, pre-emergence, 240 h, Preemergence
[2] = tested on: barnyardgrass (Echinochloa crus-galli); assay: Test A preemergence; conditions: Echinochloa crus-galli, pre-emergence, 240 h, Preemergence
How it was run: (§1)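 Greenhouse, ~10 d after spray; visual injury vs untreated controls, 0 = no effect, 100 = complete control. Preemergence: directed soil spray over planted seeds. Postemergence: plants 2–10 cm, 1–2 leaf stage. Loam/sand blend. Compound in non-phytotoxic solvent with surfactant.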

[3] = tested on: giant foxtail (Setaria faberii); assay: Test A preemergence; conditions: Setaria faberi, pre-emergence, 240 h, Preemergence
How it was run: as §1

Kochia (Kochia scoparia) [4] = assay: Test A preemergence; conditions: Bassia scoparia, pre-emergence, 240 h, Preemergence
How it was run: as §1

[5] = tested on: ragweed (common ragweed, Ambrosia elatior); assay: Test A preemergence; conditions: Ambrosia artemisiifolia, pre-emergence, 240 h, Preemergence
How it was run: as §1

[6] = tested on: ryegrass, Italian (Italian ryegrass, Lolium multiflorum); assay: Test A preemergence; conditions: Lolium multiflorum, pre-emergence, 240 h, Preemergence
How it was run: as §1

[7] = tested on: pigweed (Amaranthus retroflexus); assay: Test A postemergence; conditions: Amaranthus retroflexus, post-emergence, 240 h, Postemergence
How it was run: as §1

[8] = tested on: barnyardgrass (Echinochloa crus-galli); assay: Test A postemergence; conditions: Echinochloa crus-galli, post-emergence, 240 h, Postemergence
How it was run: as §1

[9] = tested on: giant foxtail (Setaria faberii); assay: Test A postemergence; conditions: Setaria faberi, post-emergence, 240 h, Postemergence
How it was run: as §1

[10] = tested on: Galium (catchweed bedstraw, Galium aparine); assay: Test A postemergence; conditions: Galium, post-emergence, 240 h, Postemergence
How it was run: as §1

corn (Zea mays) = assay: Test A postemergence; conditions: Zea mays, post-emergence, 240 h, Postemergence
How it was run: as §1

Kochia (Kochia scoparia) [11] = assay: Test A postemergence; conditions: Bassia scoparia, post-emergence, 240 h, Postemergence
How it was run: as §1

[12] = tested on: ragweed (common ragweed, Ambrosia elatior); assay: Test A postemergence; conditions: Ambrosia artemisiifolia, post-emergence, 240 h, Postemergence
How it was run: as §1

[13] = tested on: wheat (Triticum aestivum); assay: Test A postemergence; conditions: Triticum aestivum, post-emergence, 240 h, Postemergence
How it was run: as §1

[14] = tested on: blackgrass (Alopecurus myosuroides); assay: Test A postemergence; conditions: Alopecurus myosuroides, post-emergence, 240 h, Postemergence
How it was run: as §1

[15] = tested on: ryegrass, Italian (Italian ryegrass, Lolium multiflorum); assay: Test A postemergence; conditions: Lolium multiflorum, post-emergence, 240 h, Postemergence
How it was run: as §1

[16] = tested on: barnyardgrass (Echinochloa crus-galli); assay: Test B flooded paddy test; conditions: Echinochloa crus-galli, 360 h, Flood, 250 g ai/ha; visually evaluated after 13 to 15 d; read-out: Plant response rating, Barnyardgrass (0 to 100 scale where 0 is no effect and 100 is complete control)
How it was run: (§2)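 Flooding to 3 cm over soil accompanied treatment, which consisted of adding compound to the standing water around 2-leaf plants; depth was then maintained. Visual assessment versus controls followed at 13 to 15 d (scale 0–100, 0 meaning no effect).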

[17] = tested on: sedge, umbrella (small-flower umbrella sedge, Cyperus difformis); assay: Test B flooded paddy test; conditions: Cyperus difformis, 360 h, Flood, 250 g ai/ha; visually evaluated after 13 to 15 d; read-out: Plant response rating, Sedge, Umbrella (0 to 100 scale where 0 is no effect and 100 is complete control)
How it was run: as §2

rice (Oryra sativa) = assay: Test B flooded paddy test; conditions: Oryza sativa, 360 h, Flood, 250 g ai/ha; visually evaluated after 13 to 15 d; read-out: Plant response rating, Rice (0 to 100 scale where 0 is no effect and 100 is complete control)
How it was run: as §2

[18] = tested on: ducksalad (Heteranthera limosa); assay: Test B flooded paddy test; conditions: Heteranthera limosa, 360 h, Flood, 250 g ai/ha; visually evaluated after 13 to 15 d; read-out: Plant response rating, Ducksalad (0 to 100 scale where 0 is no effect and 100 is complete control)
How it was run: as §2

With `CN1C[C@H](c2ccc(Br)cc2)[C@@H](C(=O)Nc2ccc(F)c(F)c2F)C1=O` [Compound 1393] the pest or weed control at 31 g/ha ([1]; 31 g ai/ha, 0 to 100 scale where 0 is no effect and 100 is complete control, read-out: Pigweed plant response rating) was 30%, the pest or weed control at 125 g/ha ([1]; 125 g ai/ha, 0 to 100 scale (0 no effect, 100 complete control), read-out: Plant response rating, Pigweed) was 80% and the pest or weed control at 31 g/ha ([2]; 31 g ai/ha, 0 to 100 scale where 0 is no effect and 100 is complete control, read-out: Barnyardgrass plant response rating) was 40%. It also gave a pest or weed control at 125 g/ha ([2]; 125 g ai/ha, 0 to 100 scale (0 no effect, 100 complete control), read-out: Plant response rating, Barnyardgrass) of 90%, a pest or weed control at 31 g/ha ([3]; 31 g ai/ha, 0 to 100 scale where 0 is no effect and 100 is complete control, read-out: Foxtail, Giant plant response rating) of 80% and a pest or weed control at 125 g/ha ([3]; 125 g ai/ha, 0 to 100 scale (0 no effect, 100 complete control), read-out: Plant response rating, Foxtail, Giant) of 90%. The pest or weed control at 31 g/ha (Kochia (Kochia scoparia) [4]; 31 g ai/ha, 0 to 100 scale where 0 is no effect and 100 is complete control, read-out: Kochia plant response rating) was 40%, the pest or weed control at 125 g/ha (Kochia (Kochia scoparia) [4]; 125 g ai/ha, 0 to 100 scale (0 no effect, 100 complete control), read-out: Plant response rating, Kochia) was 70% and the pest or weed control at 31 g/ha ([5]; 31 g ai/ha, 0 to 100 scale where 0 is no effect and 100 is complete control, read-out: Ragweed plant response rating) was 30%. For the same compound, the pest or weed control at 125 g/ha ([5]; 125 g ai/ha, 0 to 100 scale (0 no effect, 100 complete control), read-out: Plant response rating, Ragweed) was 90%, the pest or weed control at 31 g/ha ([6]; 31 g ai/ha, 0 to 100 scale where 0 is no effect and 100 is complete control, read-out: Ryegrass, Italian plant response rating) was 0% and the pest or weed control at 125 g/ha ([6]; 125 g ai/ha, 0 to 100 scale (0 no effect, 100 complete control), read-out: Plant response rating, Ryegrass, Italian) was 20%. It also gave a pest or weed control at 31 g/ha ([7]; 31 g ai/ha, 0 is no effect, 100 is complete control, read-out: Pigweed plant response rating (0 to 100 scale)) of 40%, a pest or weed control at 125 g/ha ([7]; 125 g ai/ha, visual injury after approx. 10 d, 0 to 100 scale, 0 no effect, 100 complete control, read-out: Plant response rating, Pigweed) of 60% and a pest or weed control at 31 g/ha ([8]; 31 g ai/ha, 0 is no effect, 100 is complete control, read-out: Barnyardgrass plant response rating (0 to 100 scale)) of 70%. For the same compound, the pest or weed control at 125 g/ha ([8]; 125 g ai/ha, visual injury after approx. 10 d, 0 to 100 scale, 0 no effect, 100 complete control, read-out: Plant response rating, Barnyardgrass) was 90%, the pest or weed control at 31 g/ha ([9]; 31 g ai/ha, 0 is no effect, 100 is complete control, read-out: Foxtail, Giant plant response rating (0 to 100 scale)) was 70% and the pest or weed control at 125 g/ha ([9]; 125 g ai/ha, visual injury after approx. 10 d, 0 to 100 scale, 0 no effect, 100 complete control, read-out: Plant response rating, Foxtail, Giant) was 90%. It also gave a pest or weed control at 31 g/ha ([10]; 31 g ai/ha, 0 is no effect, 100 is complete control, read-out: Galium plant response rating (0 to 100 scale)) of 50%, a pest or weed control at 125 g/ha ([10]; 125 g ai/ha, visual injury after approx. 10 d, 0 to 100 scale, 0 no effect, 100 complete control, read-out: Plant response rating, Galium) of 60% and a plant injury at 31 g/ha (corn (Zea mays); 31 g ai/ha, 0 is no effect, 100 is complete control, read-out: Corn plant response rating (0 to 100 scale)) of 0%. It also gave a Corn plant response rating (crop injury, 0 = no effect, 100 = complete kill) at 125 g/ha (corn (Zea mays); 125 g ai/ha, visual injury after approx. 10 d, 0 to 100 scale, 0 no effect, 100 complete control) of 80%, a pest or weed control at 31 g/ha (Kochia (Kochia scoparia) [11]; 31 g ai/ha, 0 is no effect, 100 is complete control, read-out: Kochia plant response rating (0 to 100 scale)) of 30% and a pest or weed control at 125 g/ha (Kochia (Kochia scoparia) [11]; 125 g ai/ha, visual injury after approx. 10 d, 0 to 100 scale, 0 no effect, 100 complete control, read-out: Plant response rating, Kochia) of 70%. The pest or weed control at 31 g/ha ([12]; 31 g ai/ha, 0 is no effect, 100 is complete control, read-out: Ragweed plant response rating (0 to 100 scale)) was 0%, the pest or weed control at 125 g/ha ([12]; 125 g ai/ha, visual injury after approx. 10 d, 0 to 100 scale, 0 no effect, 100 complete control, read-out: Plant response rating, Ragweed) was 50% and the plant injury at 31 g/ha ([13]; 31 g ai/ha, 0 is no effect, 100 is complete control, read-out: Wheat plant response rating (0 to 100 scale)) was 0%. The plant injury at 125 g/ha ([13]; 125 g ai/ha, visual injury after approx. 10 d, 0 to 100 scale, 0 no effect, 100 complete control, read-out: Plant response rating, Wheat) was 30%, the pest or weed control at 31 g/ha ([14]; 31 g ai/ha, 0 is no effect, 100 is complete control, read-out: Blackgrass plant response rating (0 to 100 scale)) was 20% and the pest or weed control at 125 g/ha ([14]; 125 g ai/ha, visual injury after approx. 10 d, 0 to 100 scale, 0 no effect, 100 complete control, read-out: Plant response rating, Blackgrass) was 30%. The pest or weed control at 31 g/ha ([15]; 31 g ai/ha, 0 is no effect, 100 is complete control, read-out: Ryegrass, Italian plant response rating (0 to 100 scale)) was 0%, the pest or weed control at 125 g/ha ([15]; 125 g ai/ha, visual injury after approx. 10 d, 0 to 100 scale, 0 no effect, 100 complete control, read-out: Plant response rating, Ryegrass, Italian) was 20% and the pest or weed control at 250 g/ha [16] was 85%. For the same compound, the pest or weed control at 250 g/ha [17] was 0%, the pest or weed control at 250 g/ha (rice (Oryra sativa)) was 55% and the pest or weed control at 250 g/ha [18] was 100%.
